Test results as given in US20230085307A1, “PYRIDAZINONE COMPOUND AND HERBICIDE” (NISSAN CHEMICAL CORPORATION, priority 2019, published 2023).

What was measured:
[1] = tested on: barnyard grass; assay: Test Example 3: herbicidal effect by foliage application, Wagner pot (Table 18, symbol H); assay type: in vivo, barnyard grass (Echinochloa crus-galli); conditions: amount of applied herbicide 320 g/ha
In short: (§1)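 Plants were sown in alluvial soil held under 0.1–0.5 cm standing water and grown 14 days in a greenhouse at 25–30 °C. An emulsifiable formulation, water-diluted to the set dose, was then sprayed onto the foliage, and effects were scored three weeks later using previously defined criteria.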

[2] = tested on: Chinese sprangletop; assay: Test Example 3: herbicidal effect by foliage application, Wagner pot (Table 18, symbol D); assay type: in vivo, chinese sprangletop (Leptochloa chinensis); conditions: amount of applied herbicide 320 g/ha
In short: as §1

[3] = tested on: rice flat sedge; assay: Test Example 3: herbicidal effect by foliage application, Wagner pot (Table 18, symbol E); assay type: in vivo, rice flat sedge (Cyperus iria); conditions: amount of applied herbicide 320 g/ha
In short: as §1

[4] = tested on: directly sowed rice; assay: Test Example 3: effect on crop by foliage application, Wagner pot (Table 18, symbol b); assay type: in vivo; conditions: amount of applied herbicide 320 g/ha
Description: [Test Example 3] Herbicidal Effect Test by Foliage Application After alluvial soil was placed into 1/10000 are of Wagner pot, water was poured and mixed to form a submerged condition having a water depth of 0.1 cm to 0.5 cm. Seeds of barnyard grass, Chinese sprangletop, rice flat sedge, and rice were sowed and the pot was placed in a greenhouse at 25° C. to 30° C. for growth of the plants. After 14-day growth of the plants, the emulsion agent of the compound of the present invention prepared according to Formulation Example 2 was diluted with water so as to achieve a predetermined herbicide amount, and the diluted emulsion agent was uniformly applied to a foliage part with a small-sized spray. Three weeks after the herbicide application, the effect of the herbicide on each plant was evaluated according to the criteria of Test Example 1.

[5] = tested on: southern crabgrass; assay: Test Example 4: herbicidal effect by soil treatment (Table 19, symbol F); assay type: in vivo, southern crabgrass (Digitaria ciliaris); conditions: amount of applied herbicide 320 g/ha
In short: (§2)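 Soil-surface application: an emulsion agent diluted with water to the predetermined dose is sprayed uniformly over seeds lying under roughly 1.5 cm of sterilized diluvial soil. Boxes stay in a greenhouse at 25° C. to 30° C. Three weeks later, each species is graded on previously defined criteria.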

[6] = tested on: green foxtail; assay: Test Example 4: herbicidal effect by soil treatment (Table 19, symbol G); assay type: in vivo, green foxtail (Setaria viridis); conditions: amount of applied herbicide 320 g/ha
In short: as §2

[7] = tested on: barnyard grass; assay: Test Example 4: herbicidal effect by soil treatment (Table 19, symbol H); assay type: in vivo, barnyard grass (Echinochloa crus-galli); conditions: amount of applied herbicide 320 g/ha
In short: as §2

[8] = tested on: wild oat; assay: Test Example 4: herbicidal effect by soil treatment (Table 19, symbol I); assay type: in vivo, wild oat (Avena fatua); conditions: amount of applied herbicide 320 g/ha
In short: as §2

[9] = tested on: blackgrass; assay: Test Example 4: herbicidal effect by soil treatment (Table 19, symbol J); assay type: in vivo, blackgrass (Alopecurus myosuroides); conditions: amount of applied herbicide 320 g/ha
In short: as §2

[10] = tested on: Italian ryegrass; assay: Test Example 4: herbicidal effect by soil treatment (Table 19, symbol K); assay type: in vivo, Italian ryegrass (Lolium multiflorum); conditions: amount of applied herbicide 320 g/ha
In short: as §2

[11] = tested on: windgrass; assay: Test Example 4: herbicidal effect by soil treatment (Table 19, symbol L); assay type: in vivo, windgrass (Apera spica-venti); conditions: amount of applied herbicide 320 g/ha
In short: as §2

[12] = tested on: velvetleaf; assay: Test Example 4: herbicidal effect by soil treatment (Table 19, symbol M); assay type: in vivo, velvetleaf (Abutilon theophrasti); conditions: amount of applied herbicide 320 g/ha
In short: as §2

[13] = tested on: redroot pigweed; assay: Test Example 4: herbicidal effect by soil treatment (Table 19, symbol N); assay type: in vivo, redroot pigweed (Amaranthus retroflexus); conditions: amount of applied herbicide 320 g/ha
In short: as §2

[14] = tested on: lambsquarters; assay: Test Example 4: herbicidal effect by soil treatment (Table 19, symbol O); assay type: in vivo, lambsquarters (Chenopodium album); conditions: amount of applied herbicide 320 g/ha
In short: as §2

[15] = tested on: corn; assay: Test Example 4: effect on crop by soil treatment (Table 19, symbol c); assay type: in vivo; conditions: amount of applied herbicide 320 g/ha
Source text: (§3) [Test Example 4] Herbicidal Effect Test by Soil Treatment
(§4) Sterilized diluvial soil was placed in a plastic box having a length of 21 cm, a width of 13 cm, and a depth of 7 cm. The seeds of each of southern crabgrass, green foxtail, barnyard grass, wild oat, blackgrass, Italian ryegrass, windgrass, velvetleaf, redroot pigweed, lambsquarters, chickweed, false cleavers, persian speedwell, corn, soybean, rice, wheat, beet, and rapeseed were sowed in a spot-like manner and covered with the soil having a thickness of about 1.5 cm. Subsequently, the emulsion agent of the compound of the present invention prepared according to Formulation Example 2 was diluted with water so as to achieve a predetermined herbicide amount, and the diluted emulsion agent was uniformly applied to the surface of the soil with a small-sized spray. The plastic box was placed in a greenhouse at 25° C. to 30° C. for growth of the plants. Three weeks after the herbicide application, the effect of the herbicide on each plant was evaluated according to the criteria of Test Example 1.

[16] = tested on: soybean; assay: Test Example 4: effect on crop by soil treatment (Table 19, symbol d); assay type: in vivo; conditions: amount of applied herbicide 320 g/ha
Source text: as §3, §4

[17] = tested on: wheat; assay: Test Example 4: effect on crop by soil treatment (Table 19, symbol e); assay type: in vivo; conditions: amount of applied herbicide 320 g/ha
Source text: as §3, §4

[18] = tested on: beet; assay: Test Example 4: effect on crop by soil treatment (Table 19, symbol f); assay type: in vivo; conditions: amount of applied herbicide 320 g/ha
Source text: as §3, §4

[19] = tested on: rapeseed; assay: Test Example 4: effect on crop by soil treatment (Table 19, symbol g); assay type: in vivo; conditions: amount of applied herbicide 320 g/ha
Source text: as §3, §4

melting point [°C]	SMILES	herbicidal effect on H: barnyard grass [1]	herbicidal effect on D: Chinese sprangletop [2]	herbicidal effect on E: rice flat sedge [3]	effect on crop b: directly sowed rice [4]	herbicidal effect, F: southern crabgrass [5]	herbicidal effect, G: green foxtail [6]	herbicidal effect, H: barnyard grass [7]	herbicidal effect, I: wild oat [8]	herbicidal effect, J: blackgrass [9]	herbicidal effect, K: Italian ryegrass [10]	herbicidal effect, L: windgrass [11]	herbicidal effect, M: velvetleaf [12]	herbicidal effect, N: redroot pigweed [13]	herbicidal effect, O: lambsquarters [14]	effect on crop, c: corn [15]	effect on crop, d: soybean [16]	effect on crop, e: wheat [17]	effect on crop, f: beet [18]	effect on crop, g: rapeseed [19]
152 to 155	COc1ccccc1-c1sc2ccc(SC(F)(F)F)cc2c1-c1c(OC)c(C)nn(C)c1=O [Compound No. 2-379, 5-methoxy-4-(2-(2-methoxyphenyl)-5-((trifluoromethyl)thio)benzo[b]thiophen-3-yl)-2,6-di methylpyridazin-3(2H)-one]	–	–	–	–	–	–	–	–	–	–	–	–	–	–	–	–	–	–	–
183 to 186	COc1ccccc1-c1sc2ccc(SC(F)(F)F)cc2c1-c1c(O)c(C)nn(C)c1=O [Compound No. 2-378, 5-hydroxy-4-(2-(2-methoxyphenyl)-5-((trifluoromethyl)thio)benzo[b]thiophen-3-yl)-2,6-di methylpyridazin-3(2H)-one]	5 (Herbicidal rate of 90% or more (almost completely withered))	5 (Herbicidal rate of 90% or more (almost completely withered))	3 (Herbicidal rate of 40% or more and less than 70%)	0 (Herbicidal rate of 5% or less (almost no effect))	0 (Herbicidal rate of 5% or less (almost no effect))	0 (Herbicidal rate of 5% or less (almost no effect))	0 (Herbicidal rate of 5% or less (almost no effect))	0 (Herbicidal rate of 5% or less (almost no effect))	0 (Herbicidal rate of 5% or less (almost no effect))	0 (Herbicidal rate of 5% or less (almost no effect))	0 (Herbicidal rate of 5% or less (almost no effect))	0 (Herbicidal rate of 5% or less (almost no effect))	4 (Herbicidal rate of 70% or more and less than 90%)	2 (Herbicidal rate of 20% or more and less than 40%)	0 (Herbicidal rate of 5% or less (almost no effect))	0 (Herbicidal rate of 5% or less (almost no effect))	0 (Herbicidal rate of 5% or less (almost no effect))	0 (Herbicidal rate of 5% or less (almost no effect))	0 (Herbicidal rate of 5% or less (almost no effect))
